Measurements: ChEMBL document CHEMBL4052601, “Glycybridins A-K, Bioactive Phenolic Compounds from Glycyrrhiza glabra” (J Nat Prod, 2017)

How the values were obtained:
RAW264.7 = test: Antiinflammatory activity against mouse RAW264.7 cells assessed as inhibition of LPS-induced nitric oxide production at 10 uM after 24 hrs by Griess assay relative to control; assay type: functional; conditions: RAW264.7, 24 h
SW480 = test: Antiproliferative activity against human SW480 cells at 10 uM after 24 hrs by MTS assay relative to control; assay type: functional; conditions: SW480, 24 h
HepG2 = test: Antiproliferative activity against human HepG2 cells at 10 uM after 24 hrs by MTS assay relative to control; assay type: functional; conditions: HepG2, 24 h
MCF7 = test: Antiproliferative activity against human MCF7 cells at 10 uM after 24 hrs by MTS assay relative to control; assay type: functional; conditions: MCF7, 24 h
Homo sapiens = test: Inhibition of LPS-induced NF-kappaB (unknown origin) transactivation expressed in human SW480 cells at 10 uM administered 1 hr after LPS stimulation measured after 6 hrs by luciferase reporter gene assay relative to control; assay type: cell-based
[1] = biological target: T1, Tyrosine-protein phosphatase non-receptor type 1 (Homo sapiens) (UniProt P18031); test: (§1) Inhibition of recombinant human PTP1B using pNPP as substrate after 30 mins
T1 sequence (whole entry): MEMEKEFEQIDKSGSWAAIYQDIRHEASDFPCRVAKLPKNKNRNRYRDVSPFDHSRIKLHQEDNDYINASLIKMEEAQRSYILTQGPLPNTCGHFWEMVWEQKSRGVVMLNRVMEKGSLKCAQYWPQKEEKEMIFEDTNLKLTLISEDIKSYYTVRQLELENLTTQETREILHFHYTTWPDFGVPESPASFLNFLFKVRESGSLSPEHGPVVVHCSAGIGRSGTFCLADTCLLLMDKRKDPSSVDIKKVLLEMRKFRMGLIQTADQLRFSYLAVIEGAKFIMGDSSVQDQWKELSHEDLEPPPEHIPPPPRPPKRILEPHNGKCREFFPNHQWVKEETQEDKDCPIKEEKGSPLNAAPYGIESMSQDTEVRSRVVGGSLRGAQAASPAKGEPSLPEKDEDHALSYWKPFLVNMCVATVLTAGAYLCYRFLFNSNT

[2] = biological target: T2, Tyrosine-protein phosphatase non-receptor type 1 (Homo sapiens, UniProt P18031); test: as §1
T2 sequence (P18031 whole entry): T1 sequence (whole entry)

[3] = biological target: T1, Tyrosine-protein phosphatase non-receptor type 1 (Homo sapiens); conditions: at 10 µM
Description: Inhibition of recombinant human PTP1B using pNPP as substrate at 10 uM after 30 mins relative to control

A549 = test: Antiproliferative activity against human A549 cells at 10 uM after 24 hrs by MTS assay relative to control; assay type: functional; conditions: A549, 24 h
[4] = biological target: T3, Tyrosinase (Homo sapiens) (UniProt P14679); conditions: at 10 µM;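 also: tyrosinase of unspecified origin acting on L-tyrosine, compound preincubated with enzyme for 15 min before adding substrate, inhibition expressed versus control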
T3 sequence (whole entry): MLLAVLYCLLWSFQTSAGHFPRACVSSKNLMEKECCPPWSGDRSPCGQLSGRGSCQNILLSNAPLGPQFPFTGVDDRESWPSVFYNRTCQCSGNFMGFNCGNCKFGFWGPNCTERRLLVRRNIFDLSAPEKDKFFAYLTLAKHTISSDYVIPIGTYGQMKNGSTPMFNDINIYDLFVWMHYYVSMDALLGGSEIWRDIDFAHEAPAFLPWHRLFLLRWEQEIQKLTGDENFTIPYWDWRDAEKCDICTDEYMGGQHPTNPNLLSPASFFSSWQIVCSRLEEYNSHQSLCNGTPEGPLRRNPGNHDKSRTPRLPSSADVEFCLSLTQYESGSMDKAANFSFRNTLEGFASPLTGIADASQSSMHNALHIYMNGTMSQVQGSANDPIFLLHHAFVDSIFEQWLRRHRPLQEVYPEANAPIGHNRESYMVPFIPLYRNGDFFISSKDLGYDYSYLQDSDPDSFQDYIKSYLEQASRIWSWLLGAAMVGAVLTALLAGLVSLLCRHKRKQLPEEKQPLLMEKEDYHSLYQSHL
Description: Inhibition of tyrosinase (unknown origin) using L-tyrosine as substrate at 10 uM preincubated for 15 mins followed by substrate addition relative to control

Row | Compound | inhibition at 10 µM (RAW264.7) | inhibition at 10 µM (SW480) | inhibition at 10 µM (HepG2) | inhibition at 10 µM (MCF7) | inhibition (Homo sapiens) | inhibition [1] | IC50 [2] | inhibition [3] | inhibition at 10 µM (A549) | inhibition [4]
1 | CC(C)=CCc1c(O)ccc2c1O[C@H](c1ccc3c(c1)C=CC(C)(C)O3)CC2=O | 0% | 34.8% | 76.5% | 71.2% | 44.7% | Dose-dependent effect | 5 to 7.9 µM | 71% | 0% | 3.1%
2 | CC(C)=CCc1cc(/C=C/C(=O)c2ccc3c(c2O)C=CC(C)(C)O3)ccc1O | 7.2% | 4.9% | 10.6% | 15.6% | 3.4% | Dose-dependent effect | 5 to 7.9 µM | 84.5% | 2% | 0%
3 | CC(C)=CCc1cc([C@@H]2CC(=O)c3ccc(O)c(CC=C(C)C)c3O2)ccc1O [GLABROL] | 14.7% | 13.6% | 51.3% | 48% | 28.2% | Dose-dependent effect | 5 to 7.9 µM | 65.1% | 3.2% | 2.3%
4 | CC1(C)C=Cc2c(ccc3c2OCc2c-3oc3cc(O)ccc23)O1 | 7.4% | 1.1% | 0% | 33.7% | 1.4% | – | – | 18.1% | 0% | 26.3%
5 | COc1ccc([C@@H]2COc3c(ccc4c3C=CC(C)(C)O4)C2)c(O)c1 | 8.5% | 16.1% | 54.2% | 5.3% | 4.1% | – | – | 14.6% | 35.9% | 2.2%
6 | CC(C)=CCc1cc([C@@H]2CC(=O)c3ccc(O)cc3O2)ccc1O [ABYSSINONE II] | 10.5% | 0% | 44.2% | 42.3% | 56.6% | – | – | 4.2% | 0% | 7.8%
7 | CC(C)=CCc1c(O)ccc([C@@H]2COc3c(ccc(O)c3CC=C(C)C)C2)c1O [KANZONOL X] | 15.7% | 74.4% | 14.9% | 95.9% | 32.9% | – | – | 15.7% | 81.6% | 7.9%
8 | CC(C)=CCc1cc(/C=C/C(=O)c2ccc(O)c(CC=C(C)C)c2O)ccc1O [KANZONOL C] | 12.8% | 35.6% | 31.7% | 55.8% | 0% | Dose-dependent effect | 5 to 7.9 µM | 75.8% | 58% | 0%
9 | O=C(/C=C/c1ccc(O)cc1)c1ccc(O)cc1O [ISOLIQUIRITIGENIN] | 21% | 29.1% | 6.5% | 65.6% | 17.1% | – | – | 14.2% | 8.3% | 15.3%
10 | CC(C)=CCc1cc([C@@H]2CC(=O)c3ccc4c(c3O2)C=CC(C)(C)O4)ccc1O [SHINFLAVANONE] | 11.3% | 25% | 16.9% | 36.5% | 15.5% | Dose-dependent effect | 5 to 7.9 µM | 62.6% | 5.1% | 3.2%
11 | CC(C)=CCc1c(O)cc(O)c2c(=O)c(-c3ccc(O)cc3)coc12 | 1.5% | 21.2% | 32.4% | 19.7% | 7.1% | – | – | 10.6% | 0% | 1.6%
12 | CC1(C)C=Cc2c(cc(O)c3c(=O)c(-c4ccc(O)cc4O)coc23)O1 | 5.6% | 29.6% | 12.7% | 12.7% | 0% | – | – | 57.6% | 4.3% | 28.7%
13 | CC(C)=CCc1c(O)ccc(C(=O)/C=C/c2ccc(O)cc2)c1O [ISOBAVACHALCONE] | 7.5% | 46.7% | 27.3% | 15.6% | 13.2% | – | – | 16% | 3.5% | 18.4%
14 | CC1(C)C=Cc2c(cc(O)c3c2OCC(c2ccc(O)cc2O)C3=O)O1 (centres undefined) | 1.9% | 29.6% | 37.6% | 12.7% | 0.1% | – | – | 58.5% | 4.3% | 35.6%
15 | CC(C)=CCc1cc([C@H]2Oc3cc(O)ccc3C[C@H]2O)ccc1O | 1.8% | 32.7% | 7.3% | 18.6% | 9.8% | – | – | 10.4% | 13.3% | 14.3%
16 | CC1(C)C=Cc2cc(C[C@@H](O)C(=O)c3ccc(O)cc3O)ccc2O1 | 9.3% | 1.9% | 12.3% | 19.3% | 0% | – | – | 0.2% | 6.4% | 1%
17 | CC1(C)C=Cc2c(ccc3c2OC[C@H]2c4ccc(O)cc4O[C@@H]32)O1 [SHINPTEROCARPIN] | 4.1% | 0% | 65% | 14.4% | 0% | – | – | 13.3% | 2.2% | 11.2%
18 | COc1ccc2c(c1)O[C@H]1c3ccc(O)c(CC=C(C)C)c3OC[C@@H]21 [LICOAGROCARPIN] | 16.7% | 18.2% | 8.3% | 52.9% | 0% | – | – | 4.9% | 37.3% | 0%
19 | CC1(C)C=Cc2cc3c(cc2O1)OCC(c1ccc(O)c2c1OC(C)(C)C=C2)=C3 | 2.6% | 24.3% | 0% | 26.6% | 0% | – | – | 95.3% | 0.7% | 1.3%
20 | CC(C)=CCc1cc([C@H]2Oc3c(ccc(O)c3CC=C(C)C)C(=O)C2O)ccc1O (some centres undefined) | 0% | 25.2% | 39% | 33.2% | 37% | – | – | 43.9% | 24.8% | 0.8%
21 | CC(C)=CCc1c(O)ccc(C(=O)/C=C/c2cc(O)c3c(c2)C=CC(C)(C)O3)c1O | 2% | 34.7% | 21.7% | 72% | 23.1% | – | – | 47.1% | 10.9% | 0%
22 | CC1(C)C=Cc2c(ccc3c(=O)c(Oc4ccc(O)cc4O)coc23)O1 | 6.3% | 7.1% | 29.9% | 2.6% | 18.1% | – | – | 12.8% | 0% | 2.4%
23 | CC1(C)C=Cc2cc([C@@H]3CC(=O)c4ccc5c(c4O3)C=CC(C)(C)O5)ccc2O1 [XAMBIOONA] | 6.9% | 7.9% | 0% | 0% | 0% | – | – | 76.9% | 10.9% | 0%
